“Also recorded” adds a separate entry of the source.
Key:
MDA-MB-231 = experiment: XTT cell viability assay, MDA-MB-231; format: cell-based; conditions: Homo sapiens, XTT assay (48 h), standard deviation of 10%, read-out: EC50 (μM) Breast MDA-MB-231
Experimental: (§1) Fifty microliters of sodium 3′-[1-phenylaminocarbonyl)-3,4-tetrazolium]-bis(4-methoxy-6-nitro) benzene sulfonic acid hydrate (XTT) reagent was added to each well. The assay is based on the cleavage of the yellow tetrazolium salt XTT to form an orange formazan dye by metabolically active cells. The absorbance of the formazan product, reflecting cell viability, was measured at 490 nm. Each assay was performed in quadruplicate.
(§2) Compounds #1-#14 have been assayed as potential anti-proliferative agents against a panel of human breast head and neck, and kidney tumor cells and hematological malignancies, selected on the basis of their aggressiveness (e.g. incurable triple-negative breast cancer cells: MDA-MB-231; kidney ccRCC cells: RCC4, A498 and 786-O and 786R; head and neck cancer cells: CAL33, CAL33RR, CAL27, and CAL27RR; acute myeloid cell lines: OCI-AML2, OCI-AML3, MolM13, and MolM14; myelodysplastic cell line: SM1; and chronic myeloid cell line: CML). All these cell lines share as common denominator the expression of CXCR1 and CXCR2. The EC50 values have been measured by a XTT colorimetric assay, and compared to those of SB-225002, used as a reference; the results are listed in Table 1.

RCC4 = experiment: XTT cell viability assay, RCC4; format: cell-based; conditions: Homo sapiens, XTT assay (48 h), standard deviation of 10%, read-out: EC50 (μM) Kidney RCC4
Experimental: as §1, §2

CAL33RR = experiment: XTT cell viability assay, CAL33RR; format: cell-based; conditions: Homo sapiens, light or radiation study; XTT assay (48 h); resistant to irradiation and cisplatin; standard deviation of 10%; read-out: EC50 (μM) Head and Neck CAL33RR
Experimental: as §1, §2

OCI-AML2 = experiment: XTT cell viability assay, OCI-AML2; format: cell-based, human; conditions: Homo sapiens, OCI-AML2; XTT assay (48 h); standard deviation of 10%; read-out: EC50 (μM) AML OCI-AML2
Experimental: as §1, §2

OCI-AML3 = experiment: XTT cell viability assay, OCI-AML3; format: cell-based, human; conditions: Homo sapiens, OCI-AML-3; XTT assay (48 h); standard deviation of 10%
Experimental: as §1, §2

MolM13 = experiment: XTT cell viability assay, MolM13; format: cell-based, human; conditions: Homo sapiens, MOLM-13; XTT assay (48 h); standard deviation of 10%; read-out: EC50 (μM) AML MolM13
Experimental: as §1, §2

[1] = tested on: malignant (ccRCC and hematological) cells; experiment: FACS analysis of cell death markers (AV, PI), malignant cells; format: cell-based, human; conditions: 5 μM, 48 h
Experimental: FIG. 1: Observation by FACS analyses of early (Annexin AV) and late (Propidium Iodide, PI) apoptosis markers expressed by healthy and malignant cells after treatment with compounds #1 and #2 at 5 μM. CT: negative control.
(§3) Apoptosis analysis: After stimulation, cells were washed with ice-cold PBS and were stained with the annexin-V-fluos staining kit (Roche, Meylan, France) according to the manufacturer's procedure. Fluorescence was measured by using the FL2 (AV) and FL3 (propidium iodide, PI) channels of a fluorescence-activated cell sorter apparatus (Calibur cytometer).
To complete these XTT assays, malignant (ccRCC and hematological) and healthy (human fibroblasts FHN) cells have been grown with compounds #1 or #2, and after 48h the expression of cell death markers (AV and PI) has been quantified by FACS analyses (FIG. 1).

786-O and 786-R cells = experiment: FACS analysis of death markers, sunitinib-sensitive and -resistant cells; format: cell-based, human; conditions: 2.5 μM, 48 h, 786 and 786-R
Experimental: C: 786 and 786-R cells were treated with 2.5 μM compound #1 for 48 h. Cells were stained with the PI/annexin-V-fluo staining kit according to the manufacturer's indications. Histograms show both annexin-V^+/PI^− cells (blue bars) and annexin-V^+/PI^+ cells (red bars);
as §3

[2] = tested on: phosphorylation of ERK and AKT; experiment: Immunoblotting of p-ERK and p-AKT in 786-O and 786-R; format: cell-based, human; conditions: 2.5 μM, 1 to 48 h
Experimental: H: 786-O and 786-R were treated with 2.5 μM compound #1 for 1 to 48 h. p-ERK and p-AKT levels were determined by immunoblotting. ERK and AKT served as loading controls. *P<0.05; **P<0.01; ***P<0.001.
(§4) Cells were lysed in buffer containing 3% SDS, 10% glycerol and 0.825 mM Na2HPO4. 30 to 50 μg of proteins were separated on 10% SDS-PAGE, transferred onto a PVDF membrane (Immobilon, Millipore, France) and then exposed to the appropriate antibodies. Proteins were visualized with the ECL system using horseradish peroxidase-conjugated anti-rabbit or anti-mouse secondary antibodies.

[3] = Pharmacokinetics after oral gavage in mice; format: in vivo; conditions: oral gavage 50 mg/Kg
Experimental: Compound #1 was then formulated at 7.6 mg/mL, and administrated by oral gavage at 50 mg/Kg (n=12 mice) and pharmacokinetic parameters have been measured (Table 2).

A498 cells = experiment: Tumor xenograft experiment (ectopic model of RCC); format: in vivo, mice
Experimental: as §4
One microgram of total RNA was used for the reverse transcription, using the QuantiTect Reverse Transcription kit (QIAGEN, Hilden, Germany), with a blend of oligo (dT) and random primers to prime first-strand synthesis. SYBR master mix plus (Eurogentec, Liege, Belgium) was used for qPCR. The mRNA level was normalized to 36B4 mRNA.
Ectopic model of RCC: seven million A498 cells were injected subcutaneously into the flank of 5-week-old nude (nu/nu) female mice (Janvier, France). The tumor volume was determined with a caliper (v=L*1^2*0.5). When the tumor reached 100 mm^3, mice were treated five a week for 4 weeks, by gavage with placebo (dextrose water vehicle) or compound #1 (50 mg/kg). This study was carried out in strict accordance with the recommendations in the Guide for the Care and Use of Laboratory Animals. Our experiments were approved by the “Comite national institutionnel d′éthique pour l'animal de laboratoire (CIEPAL)”
Sections from blocks of formol-fixed and paraffin-embedded tumors were examined for immunostaining. Sections were incubated with monoclonal anti-Ki67 (clone MIB1, DAKO, Ready to use) antibodies. Biotinylated secondary antibody (DAKO) was applied and binding was detected with the substrate diaminobenzidine against a hematoxylin counterstain.
Mice were xenografted with the highly aggressive ccRCC cells (A498), which form highly vascularized tumors.

SMILES: O=C(Nc1cccc(Cl)c1)Nc1nc2ccc([N+](=O)[O-])cc2s1 [Compound #1, 1-(3-chlorophenyl)-3-(6-nitrobenzo[d]thiazol-2-yl)urea]
- EC50 (MDA-MB-231): 2.5 µM
- EC50 (RCC4): 5 µM
- EC50 (CAL33RR): 3 µM
- EC50 (OCI-AML2): 5 µM
- EC50 (OCI-AML3): 4 µM
- EC50 (MolM13): 7 µM
- early (AV) and late (PI) apoptosis markers on malignant cells [1]: cytotoxic effect on malignant cells; also recorded: more efficient than compound #2
- death markers (annexin-V/PI) in sensitive and resistant cells (786-O and 786-R cells): kills in a similar way sensitive and resistant
- phosphorylation of ERK and AKT [2]: inhibits the phosphorylation of ERK and AKT
- half-life ([3]; mouse, in vivo): > 3.17 h
- AUC ([3]; mouse, in vivo, po, 50 mg/kg, read-out: AUC lastPO (converted)): ~1420 ng·h/mL
- Tmax [3]: 0.5 h
- AUC lastPO ([3]; 50 mg/kg): 84965 ± 9367 ng·min/mL
- reduction of the tumor weight (A498 cells; A498 xenograft, 50 mg/kg gavage, end of experiment): more than 35%
- reduction of tumor volume (A498 cells; A498 xenograft, 50 mg/kg gavage, end of experiment (day 70)): more than 65%
- mRNA level of CXCL5 in tumors (A498 cells; human, qPCR): significantly decreased
- mRNA level of CXCL7 in tumors (A498 cells; human, qPCR): significantly decreased
- mRNA level of CXCL8 in tumors (A498 cells; human, qPCR): significantly decreased
- mRNA level of VEGFA in tumors (A498 cells; human, qPCR): not those of VEGFA
- AKT phosphorylation in tumor lysates (A498 cells; immunoblotting): inhibits AKT
- ERK phosphorylation in tumor lysates (A498 cells; immunoblotting): not ERK
- weight of the animals (A498 cells; treated group, day 70): No weight loss
- labelling of the proliferation marker Ki-67 (A498 cells; tumor immunostaining): significantly decreases
- lowering of mRNA levels of murine CD31 (A498 cells; tumors, qPCR): more than 75%

Source: patent US20210380547A1, “UREA DERIVATIVES FOR TREATING AND/OR PREVENTING CANCER” (CENTRE NATIONAL DE LA RECHERCHE SCIENTIFIQUE, priority 2018, published 2021)
